The text below walks through data of patent US20230026360A1, “DETECTION OF MOLECULAR INTERACTIONS” (Orionis Biosciences, Inc., priority 2019, published 2023).

Molecules are shown by their SMILES. “Also recorded” adds a separate entry of the source.

Format in all cases: cell-based
For test [1], the target named is T1, CRBN (Homo sapiens, UniProt Q96SW2).
T1 construct: expressed in transfected cells; host or cells: HEK293T
Nature of the test: CRBN inverse MAPPIT competition assay against TMP-lenalidomide hybrid ligand. The following applies: 300 nM TMP-lenalidomide; leptin; HEK293T; specificity versus gp130-REM2 control (CTRL). An excerpt: As in Example 6, HEK293T cells were transfected with a plasmid encoding E. coli Dihydrofolate Reductase (DHFR) fused to the tails of the cytoplasmic domain of a mutated leptin receptor (pCLG-DHFR), a plasmid encoding a CRBN prey fused to the gp130 cytoplasmic domain or a plasmid encoding a gp130-REM2 control fusion that can directly interact with the leptin receptor of the DHFR fusion protein, and the STAT3 responsive pXP2d2-rPAPI-luciferase reporter plasmid—using a standard transfection method, as described (Lievens, et al. “Array MAPPIT: high-throughput interactome analysis in mammalian cells.” Journal of Proteome Research 8.2 (2009): 877-886). […] Data points in FIGS. 10A-B represent the average luciferase activity of triplicate samples derived from cells treated with leptin+test compound for the REM2 control (CTRL) or cells treated with leptin+hybrid ligand+test compound (CRBN) relative to leptin (CTRL) or leptin+hybrid ligand (CRBN) only treated samples (the signals obtained in absence of added test compound for both cases is set at 100% of luciferase activity on y-axis). Error bars represent standard deviations. Curves were fit using 4-parameter nonlinear regression in […] PRISM software.

In test [2] the target is T2, DCAF15-RBM39 binding (Homo sapiens, UniProt Q66K64).
T2 construct: expressed in transfected cells; host or cells: HEK293T
Nature of the test: MAPPIT inverse assay, RBM39 receptor fusion + DCAF15 gp130 fusion. The following applies: inverse configuration; leptin; HEK293T. The text has this:
(§1) In this example, MAPPIT forward and inverse assays were developed that enable the assessment of sulfonamides to induce binding between DCAF15 and RBM39. […] The experimental setup was according to the procedure described before, using the following plasmid constructs encoding the MAPPIT receptor and gp130 fusions: in forward mode the DCAF15 bait was fused to a MAPPIT chimeric receptor construct containing the extracellular leptin receptor domain (pCLL-DCAF15) and RBM39 proteins was fused to the partial gp130 domain; in inverse mode, the DCAF15 bait was fused to the partial gp130 domain and RBM39 was fused to a MAPPIT transmembrane receptor (pCLG-RBM39). […] Cells were treated with leptin without or with the indicated dose of test compound (indisulam, tasisulam, CQS or E7820) at 24 hours after transfection. Luciferase activity was measured 24 hours after test compound treatment using the Luciferase Assay System kit (PROMEGA, Madison, Wis.) with an Ensight plate reader (PERKIN ELMER LIFE SCIENCES, Waltham, Mass.). […] Error bars represent standard deviations. […] The results shown in FIG. 12 indicate that only in the inverse assay mode sulfonamide-induced DCAF15-RBM39 binding can be observed.

For test [3], the target named is T2, DCAF15-RBM39 binding. The experiment in a line: MAPPIT forward assay, DCAF15 receptor fusion + RBM39 gp130 fusion. The following applies: forward configuration; leptin; HEK293T.
From the text: as §1

For the molecule `Cc1nc2cccc(N)c2c(=O)n1C1CCC(=O)NC1=O` (stereo not drawn) [CC-122], the “competition with TMP-lenalidomide hybrid ligand for binding to CRBN (inhibition of luciferase signal)” value in test [1] was “specifically inhibit hybrid-ligand induced luciferase reporter activation in a dose-dependent manner; also recorded: competed efficiently”.
`Cc1ccc(NS(=O)(=O)c2cccc(C#N)c2)c2[nH]cc(C#N)c12` [E7820]: the “sulfonamide-induced recruitment of RBM39 to DCAF15 (luciferase signal)” value (shortened to “sulfonamide-induced recruitment of RBM39”) in test [2] is “dose-dependent luciferase signal increase”.
Take `NS(=O)(=O)c1ccc(S(=O)(=O)Nc2cccc3c(Cl)c[nH]c23)cc1` [indisulam]: the “sulfonamide-induced recruitment of RBM39” value is reported as “only in inverse mode could a dose-dependent luciferase signal increase be observed” in test [3] and “dose-dependent luciferase signal increase” in test [2].
Take `Nc1cccc2c1C(=O)N(C1CCC(=O)NC1=O)C2=O` (stereo not drawn) [pomalidomide]: the “competition with TMP-lenalidomide hybrid ligand for binding to CRBN (inhibition of luciferase signal)” value in test [1] is on record as “specifically inhibit hybrid-ligand induced luciferase reporter activation in a dose-dependent manner; also recorded: competed efficiently”.
For `O=C(NS(=O)(=O)c1ccc(Br)s1)c1ccc(Cl)cc1Cl` [tasisulam], the “sulfonamide-induced recruitment of RBM39” value in test [2] is reported as “dose-dependent luciferase signal increase”.
